Results published in PMC12775434, “Ultra-large virtual screening unveils potent agonists of the neuromodulatory orphan receptor GPR139” (Nature Communications, 2025).
Several values for one entry are separate records, joined by “and”; a condition that tells them apart may be missing. Identical values can stand only once.

Experiments:
Type in all cases: cell-based
GPR139 (Gi2 activation) = target: T1, GPR139 (Gi2 activation) (Homo sapiens, UniProt Q6DWJ6); assay: BRET G protein activation (dissociation) assay, Gi2, HEK293A; details: for G protein activation, Gi2: individual replicates
T1 construct: expressed in transfected cells; host or cells: HEK293A (transient, Lipofectamine 2000)
T1 sequence (Q6DWJ6 1-353): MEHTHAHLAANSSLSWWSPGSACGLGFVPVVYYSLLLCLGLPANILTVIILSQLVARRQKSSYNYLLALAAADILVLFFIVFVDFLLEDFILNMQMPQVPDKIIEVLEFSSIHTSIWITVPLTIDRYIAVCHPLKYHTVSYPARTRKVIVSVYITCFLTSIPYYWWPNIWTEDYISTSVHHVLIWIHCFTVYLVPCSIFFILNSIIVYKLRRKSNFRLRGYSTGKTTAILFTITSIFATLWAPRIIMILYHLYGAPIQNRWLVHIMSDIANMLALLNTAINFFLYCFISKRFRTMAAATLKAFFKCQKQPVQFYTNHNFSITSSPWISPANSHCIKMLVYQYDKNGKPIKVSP
Method: (§1) Primary screening and pharmacological characterization of compounds were performed using a CHO-K1 cell line that stably expresses human GPR139 (GPR139-CHOk1). The GPR139-CHOk1 cell line was kindly provided by H. Lundbeck A/S, Denmark[24]. GPR139-CHOk1 cells were grown in Ham’s F-12 Kaighn’s Modification Medium (ThermoFisher #21127030) supplemented with 10% dialyzed fetal bovine serum (US origin, ThermoFisher #26400044), 100 units/mL Penicillin-Streptomycin (ThermoFisher #15140122), and 1 mg/mL Geneticin (ThermoFisher #11811031). […] M1R-CHOk1 cells were purchased from The Missouri S&T cDNA Resource Center (#CEM100TN00). M1R-CHOk1 cells were grown in Ham’s F12 Medium (ThermoFisher #21765029) supplemented with 10% fetal bovine serum (Brazilian origin, ThermoFisher #10270106), 100 units/mL Penicillin-Streptomycin, and 0.25 mg/mL Geneticin. HEK293A cells transiently transfected with GPR139 were used for additional pharmacological assessment of signaling pathways activated by GPR139. HEK239A cells were generously provided by Dr. Asuka Inoue, Tohoku University, Japan. HEK293A cells were grown in Dulbecco’s Modified Eagle Medium (ThermoFisher #31966047) supplemented with 10% dialyzed fetal bovine serum and 100 units/mL Penicillin-Streptomycin. Cell lines were maintained at 37 °C in humidified incubator equilibrated with 5% CO2.
(§2) The G protein dissociation assay developed by the lab of Kirill A. Martemyanov was used to measure the coupling of multiple G proteins by GPR139[57]. The assay was performed as described previously with minor modifications. HEK293A cells were reverse transfected 20–24 h prior to assay. 50,000 cells were plated in each well of white opaque tissue culture treated 96-well plates (PerkinElmer #6005680) previously coated with poly-D-lysine. Transfection solutions were prepared as described, and 10 µL transfection solution was mixed with 100 µL cells in each well. The cells in each well were transfected with 18.9 ng GPR139, 6.3 ng Venus 1-155 Gγ2, 6.3 ng Venus 159-239 Gβ1, 6.3 ng masGRK3ct-NanoLuc and 12.6 ng Gαi2, 12.6 ng Gαi3, 12.6 ng GαoA, 12.6 ng Gαq or 25.2 ng Gα12 using 375 nL Lipofectamine 2000 Transfection Reagent. Transfections with Gαq and Gα12 contained 6.3 ng DNA of the active subunit S1 of pertussis toxin (PTX-S1). Each transfection was normalized to 150 ng total DNA with pcDNA3.1. The BRET biosensors were a kind gift from the Martemyanov lab. On the day of the experiment the cells were washed with HEPES buffer. Test compounds were diluted in HEPES buffer from DMSO stocks (final DMSO concentration of maximally 0.3%). NanoLuc Luciferase substrate NanoGlo—furimazine (Promega #N1120) was diluted 1000-fold (final) in HEPES buffer. NanoGlo and test compounds were added, and measurements were performed after 10 s for Gi3, 15 s for Gi2 and GoA, 20 s for Gq, and 90 s for G12—the timepoint where maximal signal occurred with each G protein, ensuring proper determination of the potency for the G protein coupling. Simultaneous dual emission was measured at 535 nm and 475 nm on LUMIstar Omega Microplate Reader (BMG Labtech) at room temperature. The BRET ratio of 535 nm/475 nm (Venus/NanoLuc), reflecting the dissociation of the G protein heterotrimer, was used to determine the G protein activation. The basal BRET ratio obtained with buffer condition was subtracted from the absolute BRET ratio at a given test compound concentration, and the responses were normalized to the one obtained with 10 µM JNJ-63533054 for the activation of Gi2.
(§3) Pharmacological data and statistical analyses were performed in GraphPad Prism v9–10 (Graphpad Software Inc., San Diego, CA), which are also specifically described in the figure and table legends. […]

GPR139 (GoA activation) = target: T2, GPR139 (GoA activation) (Homo sapiens, UniProt Q6DWJ6); assay: BRET G protein activation (dissociation) assay, GoA, HEK293A; details: for G protein activation, GoA: individual replicates
T2 construct: expressed in transfected cells; host or cells: HEK293A (transient, Lipofectamine 2000)
T2 sequence (Q6DWJ6 1-353): T1 sequence (Q6DWJ6 1-353)
Method: as §1, §2, §3

GPR139 (Gq activation) = target: T3, GPR139 (Gq activation) (Homo sapiens, UniProt Q6DWJ6); assay: BRET G protein activation (dissociation) assay, Gq, HEK293A; details: for G protein activation, Gq: individual replicates
T3 construct: expressed in transfected cells; host or cells: HEK293A (transient, Lipofectamine 2000)
T3 sequence (Q6DWJ6 1-353): T1 sequence (Q6DWJ6 1-353)
Method: as §1, §2, §3

[1] = HEK293-A, normalized to JNJ-63533054 (JNJ(S))

Q: What does the source list for C[C@@H](NC(=O)CNC(=O)c1cccc(Cl)c1)c1ccccc1 [JNJ(R), reference compound]?
A: Emax (GPR139 (Gi2 activation); [1]): 86 ± 4%; EC50 (GPR139 (Gi2 activation); Supplementary Table 6, read-out: pEC50 Gi2 (converted)): 3.98 µM; G protein activation, Gi2 (GPR139 (Gi2 activation); log [compound] M -4.5): 73 % of JNJ-63533054 at Gi2 and 81 % of JNJ-63533054 at Gi2 and 77 % of JNJ-63533054 at Gi2; G protein activation, Gi2 (GPR139 (Gi2 activation); log [compound] M -5.0): 61 % of JNJ-63533054 at Gi2 and 62 % of JNJ-63533054 at Gi2 and 65 % of JNJ-63533054 at Gi2; G protein activation, Gi2 (GPR139 (Gi2 activation); log [compound] M -5.5): 41 % of JNJ-63533054 at Gi2 and 43 % of JNJ-63533054 at Gi2 and 42 % of JNJ-63533054 at Gi2; G protein activation, Gi2 (GPR139 (Gi2 activation); log [compound] M -6.0): 16 % of JNJ-63533054 at Gi2 and 23 % of JNJ-63533054 at Gi2 and 21 % of JNJ-63533054 at Gi2; G protein activation, Gi2 (GPR139 (Gi2 activation); log [compound] M -6.5): 6 % of JNJ-63533054 at Gi2 and 7 % of JNJ-63533054 at Gi2 and 10 % of JNJ-63533054 at Gi2; G protein activation, Gi2 (GPR139 (Gi2 activation); log [compound] M -7.0): -0.885 % of JNJ-63533054 at Gi2 and 0.48 % of JNJ-63533054 at Gi2 and 10 % of JNJ-63533054 at Gi2; G protein activation, Gi2 (GPR139 (Gi2 activation); log [compound] M -7.5): 0.698 % of JNJ-63533054 at Gi2 and -1 % of JNJ-63533054 at Gi2 and 11 % of JNJ-63533054 at Gi2; G protein activation, Gi2 (GPR139 (Gi2 activation); log [compound] M -8.0): -0.866 % of JNJ-63533054 at Gi2 and -1.55 % of JNJ-63533054 at Gi2 and 11 % of JNJ-63533054 at Gi2; Emax (GPR139 (GoA activation); [1]): 79 ± 1%; EC50 (GPR139 (GoA activation); Supplementary Table 6): 5.01 µM; G protein activation, GoA (GPR139 (GoA activation); log [compound] M -4.5): 73 % of JNJ-63533054 at Gi2 and 70 % of JNJ-63533054 at Gi2 and 62 % of JNJ-63533054 at Gi2; G protein activation, GoA (GPR139 (GoA activation); log [compound] M -5.0): 58 % of JNJ-63533054 at Gi2 and 53 % of JNJ-63533054 at Gi2 and 47 % of JNJ-63533054 at Gi2; G protein activation, GoA (GPR139 (GoA activation); log [compound] M -5.5): 37 % of JNJ-63533054 at Gi2 and 33 % of JNJ-63533054 at Gi2 and 28 % of JNJ-63533054 at Gi2; G protein activation, GoA (GPR139 (GoA activation); log [compound] M -6.0): 16 % of JNJ-63533054 at Gi2 and 13 % of JNJ-63533054 at Gi2 and 14 % of JNJ-63533054 at Gi2; G protein activation, GoA (GPR139 (GoA activation); log [compound] M -6.5): 5.7 % of JNJ-63533054 at Gi2 and 1.59 % of JNJ-63533054 at Gi2 and 5.63 % of JNJ-63533054 at Gi2; G protein activation, GoA (GPR139 (GoA activation); log [compound] M -7.0): -0.263 % of JNJ-63533054 at Gi2 and -1.74 % of JNJ-63533054 at Gi2 and 2.49 % of JNJ-63533054 at Gi2; G protein activation, GoA (GPR139 (GoA activation); log [compound] M -7.5): -1.44 % of JNJ-63533054 at Gi2 and 0.514 % of JNJ-63533054 at Gi2 and 0.72 % of JNJ-63533054 at Gi2; G protein activation, GoA (GPR139 (GoA activation); log [compound] M -8.0): -1.46 % of JNJ-63533054 at Gi2 and -2.26 % of JNJ-63533054 at Gi2 and 3.8 % of JNJ-63533054 at Gi2; Emax (GPR139 (Gq activation); [1]): 22 ± 8%; EC50 (GPR139 (Gq activation); Supplementary Table 6): 10 µM; G protein activation, Gq (GPR139 (Gq activation); log [compound] M -4.5): 17 % of JNJ-63533054 at Gi2 and 24 % of JNJ-63533054 at Gi2 and 7.59 % of JNJ-63533054 at Gi2; G protein activation, Gq (GPR139 (Gq activation); log [compound] M -5.0): 12 % of JNJ-63533054 at Gi2 and 15 % of JNJ-63533054 at Gi2 and 4 % of JNJ-63533054 at Gi2; G protein activation, Gq (GPR139 (Gq activation); log [compound] M -5.5): 8 % of JNJ-63533054 at Gi2 and 7 % of JNJ-63533054 at Gi2 and -2.15 % of JNJ-63533054 at Gi2; G protein activation, Gq (GPR139 (Gq activation); log [compound] M -6.0): 6.62 % of JNJ-63533054 at Gi2 and 3 % of JNJ-63533054 at Gi2 and -1.3 % of JNJ-63533054 at Gi2; G protein activation, Gq (GPR139 (Gq activation); log [compound] M -6.5): 3.64 % of JNJ-63533054 at Gi2 and 0.578 % of JNJ-63533054 at Gi2 and -0.535 % of JNJ-63533054 at Gi2; G protein activation, Gq (GPR139 (Gq activation); log [compound] M -7.0): 0.442 % of JNJ-63533054 at Gi2 and -1.25 % of JNJ-63533054 at Gi2 and -2 % of JNJ-63533054 at Gi2; G protein activation, Gq (GPR139 (Gq activation); log [compound] M -7.5): 0.442 % of JNJ-63533054 at Gi2 and 0.122 % of JNJ-63533054 at Gi2 and 2.16 % of JNJ-63533054 at Gi2; G protein activation, Gq (GPR139 (Gq activation); log [compound] M -8.0): -2 % of JNJ-63533054 at Gi2 and -0.213 % of JNJ-63533054 at Gi2 and 1.37 % of JNJ-63533054 at Gi2
